ChEMBL document CHEMBL1201862, “PubChem BioAssay data set” (2004)
Active and inactive are the calls of the source.

Key:
[1] = target: T1, Polyadenylate-binding protein 1 (Homo sapiens, UniProt P11940); experiment: PABP1 MLLE–PAM2 interaction inhibitors, dose response, miRNA deadenylation inhibitor project, biochemical, fluorescence polarization, Cy5-PAM2 peptide, secondary (AID 602260); type: functional; settings: read-out: IC50_Mean
[2] = target: T1, Polyadenylate-binding protein 1; experiment: PABP1 MLLE–PAM2 binding inhibitor potency, dose response, biochemical, fluorescence polarization, FITC-PAM2 peptide (AID 602259); type: functional; settings: read-out: IC50_Mean
[3] = target: Adenosylmethionine-8-amino-7-oxononanoate aminotransferase (Mycobacterium tuberculosis, UniProt P9WQ81); experiment: Mycobacterium tuberculosis BioA enzyme inhibitor Measured in Biochemical System Using Plate Reader - 2163-02_Inhibitor_Dose_CherryPick_Activity.; type: functional, Mycobacterium tuberculosis UT205
[4] = target: T2, Streptokinase A (Streptococcus pyogenes serotype M1, UniProt P10520); experiment: S. pyogenes streptokinase expression inhibitors, potency, dose response, plasminogen activation absorbance, OD405 (AID 1914); type: functional, Streptococcus pyogenes M1 GAS;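 further: secreted streptokinase activity via plasminogen activation per viability signal from cell pellet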
T2 sequence (P10520 whole entry): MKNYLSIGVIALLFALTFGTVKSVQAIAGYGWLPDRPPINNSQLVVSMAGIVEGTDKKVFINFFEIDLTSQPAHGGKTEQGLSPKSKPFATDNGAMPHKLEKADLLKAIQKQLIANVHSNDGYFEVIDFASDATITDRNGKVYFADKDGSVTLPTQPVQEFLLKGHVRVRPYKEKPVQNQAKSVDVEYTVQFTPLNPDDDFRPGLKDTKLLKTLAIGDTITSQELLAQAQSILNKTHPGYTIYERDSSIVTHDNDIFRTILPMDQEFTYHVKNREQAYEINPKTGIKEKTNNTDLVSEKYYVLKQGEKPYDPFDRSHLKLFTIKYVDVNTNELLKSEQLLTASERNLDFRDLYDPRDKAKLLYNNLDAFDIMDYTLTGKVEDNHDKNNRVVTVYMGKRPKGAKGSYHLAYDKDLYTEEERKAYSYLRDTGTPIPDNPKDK

[5] = target: T3, Sentrin-specific protease 6 (Homo sapiens, UniProt Q9GZR1); type: functional;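 further: Luminescence-based dose-response confirmatory assay of SENP6 inhibition, following up an ultra-high-throughput screen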
T3 sequence (Q9GZR1 whole entry): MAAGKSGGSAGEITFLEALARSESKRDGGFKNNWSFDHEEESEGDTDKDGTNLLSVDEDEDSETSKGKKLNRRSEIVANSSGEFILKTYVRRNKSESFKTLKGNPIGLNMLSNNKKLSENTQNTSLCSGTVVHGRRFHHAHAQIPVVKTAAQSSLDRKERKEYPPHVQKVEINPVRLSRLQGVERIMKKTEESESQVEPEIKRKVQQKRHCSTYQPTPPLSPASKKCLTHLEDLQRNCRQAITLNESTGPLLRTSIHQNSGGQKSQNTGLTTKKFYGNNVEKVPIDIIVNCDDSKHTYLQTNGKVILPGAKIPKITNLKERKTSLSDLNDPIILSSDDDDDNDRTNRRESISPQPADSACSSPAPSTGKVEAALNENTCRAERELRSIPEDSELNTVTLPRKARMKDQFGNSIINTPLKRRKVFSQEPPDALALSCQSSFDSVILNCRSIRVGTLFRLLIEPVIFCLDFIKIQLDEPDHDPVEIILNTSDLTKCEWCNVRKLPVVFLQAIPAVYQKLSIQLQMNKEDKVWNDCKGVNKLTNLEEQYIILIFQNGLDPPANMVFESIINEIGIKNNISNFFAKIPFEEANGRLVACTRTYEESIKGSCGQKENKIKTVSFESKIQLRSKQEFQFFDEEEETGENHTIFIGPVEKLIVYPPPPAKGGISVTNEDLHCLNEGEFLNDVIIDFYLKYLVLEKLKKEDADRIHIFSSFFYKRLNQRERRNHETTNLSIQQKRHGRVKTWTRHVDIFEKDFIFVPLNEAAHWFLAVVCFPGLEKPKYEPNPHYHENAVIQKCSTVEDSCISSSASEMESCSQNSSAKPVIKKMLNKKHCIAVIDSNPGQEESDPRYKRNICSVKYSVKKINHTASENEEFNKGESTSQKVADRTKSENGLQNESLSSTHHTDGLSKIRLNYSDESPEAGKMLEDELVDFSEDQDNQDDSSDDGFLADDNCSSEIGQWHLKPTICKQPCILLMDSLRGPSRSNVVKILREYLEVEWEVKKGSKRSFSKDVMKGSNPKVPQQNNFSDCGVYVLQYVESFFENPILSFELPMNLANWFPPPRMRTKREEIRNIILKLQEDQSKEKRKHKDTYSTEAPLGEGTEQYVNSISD

[6] = target: T4, Sentrin-specific protease 7 (Homo sapiens, UniProt Q9BQF6); type: functional;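 further: Luminescence-based dose-response confirmation of ultra-high-throughput screening hits, measuring inhibition of SENP7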
T4 sequence (Q9BQF6 whole entry): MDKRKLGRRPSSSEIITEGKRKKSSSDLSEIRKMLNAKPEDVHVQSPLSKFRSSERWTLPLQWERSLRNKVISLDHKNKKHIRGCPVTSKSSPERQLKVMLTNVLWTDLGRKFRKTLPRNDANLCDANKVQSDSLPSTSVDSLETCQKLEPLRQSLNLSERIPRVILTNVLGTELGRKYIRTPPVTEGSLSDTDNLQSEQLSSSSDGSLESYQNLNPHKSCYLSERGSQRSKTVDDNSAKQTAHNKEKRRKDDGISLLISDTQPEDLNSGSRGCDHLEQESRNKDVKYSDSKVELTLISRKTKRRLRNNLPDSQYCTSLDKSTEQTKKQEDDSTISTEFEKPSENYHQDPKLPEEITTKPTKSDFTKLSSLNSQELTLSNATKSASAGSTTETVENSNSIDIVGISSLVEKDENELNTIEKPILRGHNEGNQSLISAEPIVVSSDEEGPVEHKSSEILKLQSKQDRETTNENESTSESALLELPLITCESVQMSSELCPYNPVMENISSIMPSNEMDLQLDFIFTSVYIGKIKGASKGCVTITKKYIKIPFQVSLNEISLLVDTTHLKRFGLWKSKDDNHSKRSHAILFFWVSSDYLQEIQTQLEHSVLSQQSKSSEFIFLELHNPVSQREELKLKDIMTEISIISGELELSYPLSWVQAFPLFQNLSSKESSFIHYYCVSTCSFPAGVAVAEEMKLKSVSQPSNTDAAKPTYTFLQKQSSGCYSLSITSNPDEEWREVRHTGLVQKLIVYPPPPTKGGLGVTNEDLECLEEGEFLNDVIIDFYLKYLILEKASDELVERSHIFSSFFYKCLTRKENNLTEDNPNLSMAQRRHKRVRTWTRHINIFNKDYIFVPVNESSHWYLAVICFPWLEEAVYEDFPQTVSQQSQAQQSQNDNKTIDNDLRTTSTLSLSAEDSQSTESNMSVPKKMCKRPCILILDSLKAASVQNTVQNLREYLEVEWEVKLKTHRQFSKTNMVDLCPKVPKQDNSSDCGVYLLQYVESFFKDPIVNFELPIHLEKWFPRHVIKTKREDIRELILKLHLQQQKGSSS

[7] = target: T5, Caspase-3 (Homo sapiens, UniProt P42574); type: functional;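 further: Dose-response selectivity test against caspase-3 for candidate inhibitors of sentrin-specific proteases (SENPs)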
T5 sequence (P42574 whole entry): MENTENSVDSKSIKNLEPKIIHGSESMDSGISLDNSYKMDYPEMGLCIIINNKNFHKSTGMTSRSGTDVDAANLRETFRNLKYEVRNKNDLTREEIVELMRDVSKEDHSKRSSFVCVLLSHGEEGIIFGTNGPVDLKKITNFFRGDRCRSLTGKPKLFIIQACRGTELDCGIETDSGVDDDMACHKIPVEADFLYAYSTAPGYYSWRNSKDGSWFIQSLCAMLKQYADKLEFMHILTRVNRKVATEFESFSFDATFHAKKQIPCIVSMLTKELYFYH

[8] = system: Streptococcus; experiment: Group A Streptococcus viability loss, dose response, counter-screen for streptokinase expression inhibitor project, luminescence, BacTiterGlo (AID 1915); type: functional, organism-based;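 further: potency for reduction of bacterial viability or growth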
[9] = system: Streptococcus sp. 'group A'; experiment: growth inhibition of control SK(-) GAS strain, dose response, counter-screen for streptokinase expression inhibitor project, luminescence, kanamycin, BacTiterGlo, confirmation (AID 1900); type: functional, organism-based
[10] = target: T6, Sentrin-specific protease 8 (Homo sapiens, UniProt Q96LD8); type: functional;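 further: luminescence read-out of SENP8 inhibition, dose-response confirmation following an ultra-high-throughput screen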
T6 sequence (Q96LD8 whole entry): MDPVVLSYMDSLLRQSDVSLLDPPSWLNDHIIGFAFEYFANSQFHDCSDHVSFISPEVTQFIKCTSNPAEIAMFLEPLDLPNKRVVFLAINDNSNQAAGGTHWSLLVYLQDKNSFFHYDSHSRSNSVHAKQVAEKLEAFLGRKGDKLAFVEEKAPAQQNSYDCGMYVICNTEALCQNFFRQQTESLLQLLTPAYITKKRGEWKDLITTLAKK

[11] = Fluorescence-based cell-based high throughput dose response assay for inhibitors of the interaction of nucleotide-binding oligomerization domain containing 2 (NOD2) and the receptor-interacting serine-threonine kinase 2 (RIPK2).; type: functional; settings: Homo sapiens

T1 sequence (P11940 whole entry): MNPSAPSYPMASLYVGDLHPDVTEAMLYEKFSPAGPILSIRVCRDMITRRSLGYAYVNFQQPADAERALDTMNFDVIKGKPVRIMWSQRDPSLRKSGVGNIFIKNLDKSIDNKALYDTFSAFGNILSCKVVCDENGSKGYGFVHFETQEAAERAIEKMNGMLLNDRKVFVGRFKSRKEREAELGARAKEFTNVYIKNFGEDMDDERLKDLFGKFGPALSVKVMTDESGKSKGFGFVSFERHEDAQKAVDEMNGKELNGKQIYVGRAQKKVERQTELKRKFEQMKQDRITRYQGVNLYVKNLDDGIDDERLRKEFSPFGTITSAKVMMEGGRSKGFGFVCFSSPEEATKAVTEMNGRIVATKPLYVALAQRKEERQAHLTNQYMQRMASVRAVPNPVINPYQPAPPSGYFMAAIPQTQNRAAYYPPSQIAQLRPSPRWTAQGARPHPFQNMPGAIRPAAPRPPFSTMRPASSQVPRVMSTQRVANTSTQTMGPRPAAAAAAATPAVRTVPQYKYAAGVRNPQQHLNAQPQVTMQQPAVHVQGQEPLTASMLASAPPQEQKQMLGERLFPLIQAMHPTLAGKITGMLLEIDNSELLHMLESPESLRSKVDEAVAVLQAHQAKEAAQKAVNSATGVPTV
Chain of Adenosylmethionine-8-amino-7-oxononanoate aminotransferase (P9WQ81 whole entry): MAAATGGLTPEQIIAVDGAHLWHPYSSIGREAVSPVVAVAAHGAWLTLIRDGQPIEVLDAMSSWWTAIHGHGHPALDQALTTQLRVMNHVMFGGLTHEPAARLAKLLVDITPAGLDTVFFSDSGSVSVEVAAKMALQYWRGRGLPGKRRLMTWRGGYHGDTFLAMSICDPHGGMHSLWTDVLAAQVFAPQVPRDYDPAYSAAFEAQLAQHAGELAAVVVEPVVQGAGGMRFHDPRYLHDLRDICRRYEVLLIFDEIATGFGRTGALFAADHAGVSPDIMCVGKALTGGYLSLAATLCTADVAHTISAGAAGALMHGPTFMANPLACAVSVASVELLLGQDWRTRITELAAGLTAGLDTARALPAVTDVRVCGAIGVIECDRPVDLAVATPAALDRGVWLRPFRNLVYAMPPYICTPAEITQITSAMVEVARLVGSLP

CCOC(S)=NC(=NS(C)(=O)=O)c1ccccc1
IC50 [1]: > 66 µM (inactive) | IC50 [2]: > 66 µM (inactive)

CCOC(=O)C1(CCc2ccccc2)CCN(C(=O)CN2CCOC2=O)CC1
AC50 [3]: 3.89 µM (active)

Cc1n[nH]c(Nc2ccc(C(C)C)cc2)c1[N+](=O)[O-]
EC50 [4]: 22.3 µM (active) | IC50 [5]: 10.1 µM (active) | IC50 [6]: 9.42 µM (active) | IC50 [7]: 36 µM (active) | EC50 [8]: > 150 µM (not active) | EC50 [9]: 30.9 µM (active) | IC50 [10]: > 100 µM (inactive)

CCOC(=O)[C@]12Cc3c(cc(OC)c(OC)c3OC)[C@H]1N(C1CCCCC1)C(=O)c1cc(OC)ccc12
IC50 [11]: 2.36 µM (active)

O=C(O)c1cccc(NC(=O)c2ccc(COc3ccc(Cl)cc3)cc2)c1
IC50 [5]: 16.7 µM (active) | IC50 [6]: 21.8 µM (active) | IC50 [7]: > 100 µM (inactive) | IC50 [10]: 41 µM (active)

C=CCNC(=S)N/N=C(\C)c1cccc(OC)c1
IC50 [1]: > 66 µM (inactive) | IC50 [2]: > 66 µM (inactive)
